Experimental data reported in ChEMBL document CHEMBL4421722, “Inhibitors of protein prenyltransferases” (2013).

Species on record: Rattus norvegicus
Assay: Inhibition of rat recombinant geranylgeranyltransferase type I expressed in Escherichia coli assessed as residual enzyme activity for geranylgeranylation of K-Ras4B at 50 uM incubated for 30 mins in presence of [3H]GGPP by scintillation counting assay relative to control
An Activity of 59.8% was found for `CCCCCS[C@@H]1C[C@@H](c2ccc(Cl)cc2)N(S(=O)(=O)c2ccc(C)cc2)C[C@H]1C(=O)O` in this work. An Activity of 83.6% was found for `CCCCCCS[C@@H]1C[C@@H](c2ccc(OC)cc2)N(S(=O)(=O)c2ccc(C)cc2)C[C@H]1C(=O)O` in this work. An Activity of 87.2% was found for `COc1ccc([C@@H]2C[C@@H](SCc3ccc(C(C)(C)C)cc3)[C@H](C(=O)O)CN2S(=O)(=O)c2ccccc2C)cc1` in this work. An Activity of 63.7% was found for `Cc1ccc(S(=O)(=O)N2[C@@H](c3cccc(F)c3)C(C(=O)O)=CC[C@H]2c2ccccc2)cc1` in this work. An Activity of 86.8% was found for `Cc1ccc(S(=O)(=O)N2C[C@@H](C(=O)O)[C@H](SCC(C)C)C[C@H]2c2ccc(Cl)cc2)cc1` in this work. An Activity of 91.4% was found for `C=CCS[C@@H]1C[C@@H](c2ccc(C)cc2)N(S(C)(=O)=O)C[C@H]1C(=O)O` in this work. An Activity of 90.5% was found for `COc1ccc(S[C@@H]2C[C@@H](c3ccc(OC)cc3)N(S(=O)(=O)c3ccccc3)C[C@H]2C(=O)O)cc1` in this work. An Activity of 63.2% was found for `CCS[C@@H]1C[C@@H](c2ccc(Cl)cc2)N(S(=O)(=O)c2ccccc2C)C[C@H]1C(=O)O` in this work. An Activity of 79.7% was found for `COc1ccc([C@@H]2C[C@@H](SCC(C)C)[C@H](C(=O)O)CN2S(=O)(=O)c2ccccc2C)cc1` in this work. An Activity of 83.1% was found for `CCOc1ccc([C@@H]2C[C@@H](SCC(C)C)[C@H](C(=O)O)CN2S(=O)(=O)c2ccc(C)cc2)cc1` in this work. An Activity of 69.9% was found for `CS(=O)(=O)N1[C@@H](c2cccc(F)c2)C(C(=O)O)=CC[C@H]1c1ccc(Cl)cc1` in this work. An Activity of 55.3% was found for `COc1cccc([C@@H]2CC=C(C(=O)O)[C@H](c3cccc(Br)c3)N2S(=O)(=O)c2ccc(C)cc2)c1` in this work. An Activity of 102% was found for `COc1cc([C@@H]2C[C@@H](Sc3ccc(Cl)cc3)[C@H](C(=O)O)CN2S(=O)(=O)c2ccc(C)cc2)cc(OC)c1OC` in this work. An Activity of 87.1% was found for `CCOc1ccc([C@@H]2C[C@@H](SCC)[C@H](C(=O)O)CN2S(=O)(=O)c2ccc(C)cc2)cc1` in this work. An Activity of 80.4% was found for `CCCCS[C@@H]1C[C@@H](c2ccc3c(c2)OCO3)N(S(=O)(=O)c2ccc(C)cc2)C[C@H]1C(=O)O` in this work. An Activity of 74.4% was found for `CCS[C@@H]1C[C@@H](c2ccc(OC)c(OC)c2)N(S(=O)(=O)c2ccc(C)cc2)C[C@H]1C(=O)O` in this work. An Activity of 76.2% was found for `COc1ccc([C@@H]2CC=C(C(=O)O)[C@H](c3ccc(Br)cc3)N2S(=O)(=O)c2ccc(Cl)cc2)cc1` in this work. An Activity of 80.8% was found for `COc1ccc(S[C@@H]2C[C@@H](c3ccc(OC)cc3)N(S(=O)(=O)c3ccc(Cl)cc3)C[C@H]2C(=O)O)cc1` in this work. An Activity of 93.2% was found for `Cc1ccc([C@@H]2C[C@@H](SC3CCCC3)[C@H](C(=O)O)CN2S(=O)(=O)c2ccc(Cl)cc2)cc1` in this work. An Activity of 63.1% was found for `Cc1ccc(S(=O)(=O)N2C[C@@H](C(=O)O)[C@H](SCc3ccccc3)C[C@H]2c2ccc3c(c2)OCO3)cc1` in this work. An Activity of 105% was found for `CCCCCS[C@@H]1C[C@@H](c2cccc(OC)c2)N(S(=O)(=O)c2ccc(C)cc2)C[C@H]1C(=O)O` in this work. An Activity of 87.7% was found for `Cc1ccc(S(=O)(=O)N2[C@@H](c3ccc(C(C)(C)C)cc3)C(C(=O)O)=CC[C@H]2c2ccc(C#N)cc2)cc1` in this work. An Activity of 108% was found for `CC(=O)C1=CC[C@@H](c2ccc(C)cc2)N(S(C)(=O)=O)C1` in this work. An Activity of 66.3% was found for `Cc1ccc([C@@H]2C[C@@H](SCC(C)C)[C@H](C(=O)O)CN2S(=O)(=O)c2ccc(Cl)cc2)cc1` in this work. An Activity of 64.9% was found for `Cc1ccc([C@@H]2CC=C(C(=O)O)[C@H](c3cccc(F)c3)N2S(=O)(=O)c2ccccc2)cc1` in this work. An Activity of 67.1% was found for `Cc1ccc(S(=O)(=O)N2[C@@H](c3cccc(Br)c3)C(C(=O)O)=CC[C@H]2c2cccc(F)c2)cc1` in this work. An Activity of 76.1% was found for `Cc1ccc(S[C@@H]2C[C@@H](c3ccc(Cl)cc3)N(S(=O)(=O)c3ccc(C)cc3)C[C@H]2C(=O)O)cc1` in this work. An Activity of 109% was found for `C=CCS[C@@H]1C[C@@H](c2cc(OC)c(OC)c(OC)c2)N(S(=O)(=O)c2ccc(C)cc2)C[C@H]1C(=O)O` in this work. An Activity of 105% was found for `COc1ccc([C@@H]2C[C@@H](Sc3ccc(C)cc3)[C@H](C(=O)O)CN2S(=O)(=O)c2ccc(C)cc2)cc1OC` in this work. An Activity of 89.6% was found for `C=CCS[C@@H]1C[C@@H](c2ccc(CC)cc2)N(S(=O)(=O)c2ccc(C)cc2)C[C@H]1C(=O)O` in this work. An Activity of 76.9% was found for `Cc1ccc([C@@H]2C[C@@H](SCCc3ccccc3)[C@H](C(=O)O)CN2S(C)(=O)=O)cc1` in this work. An Activity of 74.7% was found for `Cc1ccc(S(=O)(=O)N2[C@@H](c3ccc(Cl)cc3)C(C(=O)O)=CC[C@H]2c2cccc(C)c2)cc1` in this work. An Activity of 89.9% was found for `Cc1ccc([C@@H]2CC=C(C(=O)O)[C@H](c3cccc(C)c3)N2S(=O)(=O)c2ccc(Cl)cc2)cc1` in this work. An Activity of 60.3% was found for `CS(=O)(=O)N1[C@@H](c2cccc(Cl)c2)C(C(=O)O)=CC[C@H]1c1ccc(Cl)cc1` in this work. An Activity of 88.8% was found for `CCCCS[C@@H]1C[C@@H](c2ccc(OC)cc2)N(S(=O)(=O)c2ccccc2C)C[C@H]1C(=O)O` in this work. An Activity of 68.1% was found for `Cc1ccc(S(=O)(=O)N2[C@@H](c3ccc(F)cc3)C(C(=O)O)=CC[C@H]2c2ccccc2)cc1` in this work. An Activity of 66% was found for `COc1ccc([C@@H]2C[C@@H](SCc3ccc(C(C)(C)C)cc3)[C@H](C(=O)O)CN2S(=O)(=O)c2ccc(Cl)cc2)cc1` in this work. An Activity of 95.9% was found for `CCOc1ccc([C@@H]2C[C@@H](SCCC(C)C)[C@H](C(=O)O)CN2S(=O)(=O)c2ccc(C)cc2)cc1` in this work. An Activity of 67.1% was found for `CCCCCS[C@@H]1C[C@@H](c2ccc(OC)cc2)N(S(=O)(=O)c2ccccc2C)C[C@H]1C(=O)O` in this work. An Activity of 84.2% was found for `Cc1ccc(S(=O)(=O)N2[C@@H](c3ccc(C(C)(C)C)cc3)C(C(=O)O)=CC[C@H]2c2ccccc2F)cc1` in this work. An Activity of 85.5% was found for `COc1ccc(S[C@@H]2C[C@@H](c3ccc(Cl)cc3)N(S(=O)(=O)c3ccc(C)cc3)C[C@H]2C(=O)O)cc1` in this work. An Activity of 90.9% was found for `Cc1ccc([C@H]2C(C(=O)O)=CC[C@@H](c3ccc(C#N)cc3)N2S(=O)(=O)c2ccc(C)cc2)cc1` in this work. An Activity of 61.3% was found for `COc1ccc([C@@H]2CC=C(C(=O)O)[C@H](c3cccc(C)c3)N2S(=O)(=O)c2ccccc2C)cc1` in this work. An Activity of 73.1% was found for `Cc1ccc([C@@H]2C[C@@H](SCC(C)C)[C@H](C(=O)O)CN2S(C)(=O)=O)cc1` in this work. An Activity of 84.4% was found for `Cc1ccc([C@@H]2CC=C(C(=O)O)[C@H](c3ccc(F)cc3)N2S(C)(=O)=O)cc1` in this work. An Activity of 45.7% was found for `CCc1ccc([C@@H]2C[C@@H](Sc3ccccc3)[C@H](C(=O)O)CN2S(=O)(=O)c2ccc(C)cc2)cc1` in this work. An Activity of 76.2% was found for `Cc1ccc(S(=O)(=O)N2[C@@H](c3cccc(F)c3)C(C(=O)O)=CC[C@H]2c2ccc(Cl)cc2)cc1` in this work. An Activity of 84.5% was found for `Cc1ccc([C@@H]2CC=C(C(=O)O)[C@H](c3ccc(Br)cc3)N2S(C)(=O)=O)cc1` in this work. An Activity of 53.4% was found for `Cc1ccc([C@@H]2CC=C(C(=O)O)[C@H](c3cccc(C)c3)N2S(=O)(=O)c2ccccc2C)cc1` in this work. An Activity of 92.1% was found for `Cc1ccccc1S(=O)(=O)N1C[C@@H](C(=O)O)[C@H](SC2CCCC2)C[C@H]1c1ccc(Cl)cc1` in this work. An Activity of 76% was found for `COc1ccc([C@@H]2CC=C(C(=O)O)[C@H](c3cccc(C)c3)N2S(=O)(=O)c2ccc(C)cc2)cc1OC` in this work. An Activity of 64.9% was found for `Cc1ccc(S(=O)(=O)N2[C@@H](c3cccc(C)c3)C(C(=O)O)=CC[C@H]2c2ccccc2)cc1` in this work. An Activity of 67.1% was found for `COc1cccc([C@@H]2CC=C(C(=O)O)[C@H](c3cccc(Cl)c3)N2S(=O)(=O)c2ccc(C)cc2)c1` in this work. An Activity of 71.9% was found for `Cc1ccc(S(=O)(=O)N2C[C@@H](C(=O)O)[C@H](SCc3ccc(C(C)(C)C)cc3)C[C@H]2c2ccccc2F)cc1` in this work. An Activity of 80.5% was found for `CCCCCCS[C@@H]1C[C@@H](c2cccc(OC)c2)N(S(=O)(=O)c2ccc(C)cc2)C[C@H]1C(=O)O` in this work. An Activity of 91.1% was found for `COc1ccc([C@@H]2C[C@@H](SCCC(C)C)[C@H](C(=O)O)CN2S(=O)(=O)c2ccc(C)cc2)cc1OC` in this work. An Activity of 68.9% was found for `Cc1ccc(S(=O)(=O)N2[C@@H](c3cccc(C)c3)C(C(=O)O)=CC[C@H]2c2cccs2)cc1` in this work. An Activity of 62.3% was found for `Cc1ccc([C@@H]2CC=C(C(=O)O)[C@H](c3cccc(Cl)c3)N2S(=O)(=O)c2ccccc2C)cc1` in this work. An Activity of 60.4% was found for `CC(C)(C)c1ccc([C@H]2C(C(=O)O)=CC[C@@H](c3ccc(Cl)cc3)N2S(C)(=O)=O)cc1` in this work. An Activity of 63.5% was found for `Cc1ccc(S(=O)(=O)N2[C@@H](c3ccc(Cl)cc3)C(C(=O)O)=CC[C@H]2c2cccc(F)c2)cc1` in this work. An Activity of 77.3% was found for `COc1ccc([C@@H]2CC=C(C(C)=O)CN2S(=O)(=O)c2ccccc2C)cc1` in this work. An Activity of 112% was found for `COc1ccc([C@@H]2C[C@@H](SC3CCCC3)[C@H](C(=O)O)CN2S(=O)(=O)c2ccc(C)cc2)cc1OC` in this work. An Activity of 96.2% was found for `CCCCCCS[C@@H]1C[C@@H](c2ccc(OC)cc2)N(S(=O)(=O)c2ccccc2)C[C@H]1C(=O)O` in this work. An Activity of 57.9% was found for `CCCCCS[C@@H]1C[C@@H](c2ccc(Cl)cc2)N(S(=O)(=O)c2ccccc2C)C[C@H]1C(=O)O` in this work. An Activity of 72.5% was found for `COc1ccc([C@@H]2CC=C(C(=O)O)[C@H](c3ccc(C)cc3)N2S(=O)(=O)c2ccc(Cl)cc2)cc1` in this work. An Activity of 84.8% was found for `COc1ccc([C@@H]2C[C@@H](Sc3ccccc3)[C@H](C(=O)O)CN2S(=O)(=O)c2ccccc2C)cc1` in this work. An Activity of 75.6% was found for `COc1ccc([C@@H]2C[C@@H](SCC(C)C)[C@H](C(=O)O)CN2S(=O)(=O)c2ccc(Cl)cc2)cc1` in this work. An Activity of 49.1% was found for `C=CCS[C@@H]1C[C@@H](c2ccc(Cl)cc2)N(S(=O)(=O)c2ccc(C)cc2)C[C@H]1C(=O)O` in this work. An Activity of 90.3% was found for `CC(=O)C1=CC[C@@H](c2cccs2)N(S(=O)(=O)c2ccc(C)cc2)C1` in this work. An Activity of 60.2% was found for `Cc1ccc(S(=O)(=O)N2[C@@H](c3ccc(F)cc3)C(C(=O)O)=CC[C@H]2c2cccc(Cl)c2)cc1` in this work. An Activity of 50.2% was found for `CS(=O)(=O)N1[C@@H](c2ccc(F)cc2)C(C(=O)O)=CC[C@H]1c1ccc(Cl)cc1` in this work. An Activity of 50.9% was found for `CCOc1ccc([C@@H]2C[C@@H](SCc3ccccc3)[C@H](C(=O)O)CN2S(=O)(=O)c2ccc(C)cc2)cc1` in this work. An Activity of 83.8% was found for `COc1ccc([C@@H]2CC=C(C(C)=O)CN2S(=O)(=O)c2ccc(C)cc2)cc1OC` in this work. An Activity of 98% was found for `Cc1ccc(S[C@@H]2C[C@@H](c3ccccc3)N(S(=O)(=O)c3ccc(C)cc3)C[C@H]2C(=O)O)cc1` in this work. An Activity of 106% was found for `COc1cc([C@@H]2C[C@@H](SCCC(C)C)[C@H](C(=O)O)CN2S(=O)(=O)c2ccc(C)cc2)cc(OC)c1OC` in this work. An Activity of 66% was found for `Cc1ccc(S(=O)(=O)N2[C@@H](c3cccc(C)c3)C(C(=O)O)=CC[C@H]2c2ccc(Cl)cc2)cc1` in this work. An Activity of 44.1% was found for `COc1ccc([C@@H]2C[C@@H](SCc3ccc(C(C)(C)C)cc3)[C@H](C(=O)O)CN2S(=O)(=O)c2ccc(C)cc2)cc1` in this work.
